Literature values, collected in patent US20170143675A1, “FORMULATIONS FOR TREATMENT OF HYPERTHYROIDISM” (DENDROPHARM GMBH, priority 2014, published 2017).
Read-outs that look alike come from different tables or passages of the source.

Key:
cats = settings: randomized trial

## Cn1ccnc1S [methimazole, 2-mercapto-1-methylimidazole]
cats; oral administration
  cats with gastrointestinal side effects: 24%
cats; transdermal administration in PLO
  cats with gastrointestinal side effects: 4%
After a single dose in PLO
  transdermal uptake: poor
Chronic transdermal administration in PLO
  reduction of the serum T4 concentration: effective
